Assay results taken from patent publication US9908873B2, “GPR40 agonists for the treatment of type II diabetes” (Janssen Pharmaceutica NV, priority 2015, dated 2018).
Values joined by “and” are separate entries in the source; they are usually repeats but may differ in a detail not shown here. Identical values can stand only once.

Target: T1, human GPR40 (Homo sapiens, UniProt O14842)
T1 construct: expressed in transfected cells
Assay: GPR40 Calcium Flux Assay
Type: cell-based
Details: transfected HEK293 cells stably expressing human GPR40; calcium-sensitive fluorescent dye; read-out: hGPR40 Ca^2+ Assay EC50
Description: Compounds were tested in a calcium flux assay using transfected HEK293 cells stably expressing either human GPR40 or rat GPR40. Human GPR40 expressing cells were cultured in DMEM-High Glucose media supplemented with 10% fetal bovine serum, 1×L-Glutamine, 1×Penicillin/Streptomycin and 500 μg/mL G418. Rat GPR40 expressing cells were cultured in DMEM-High Glucose media supplemented with 10% fetal bovine serum and 1 μg/mL puromycin. Cells were plated into poly-D-lysine coated 384-well plates and cultured overnight in a 37° C. humidified tissue culture incubator under 5% CO2/[…] atmosphere. On the day of the experiment, the culture media was replaced with assay buffer (HBSS, 20 mM HEPES, 0.1% BSA) and the cells incubated at 37° C. for 1 h. Calcium-sensitive fluorescent dye (Fluo 8 No-Wash Calcium Dye, ABD Bioquest) was then added and the cells incubated for another 30 min at 37° C. followed by 15 min at room temperature while protected from the light. The cell plate and a plate of diluted compounds of Formula (II) were loaded into a fluorescent plate reader that added compounds onto the cells while measuring the fluorescence intensity of each well. The plate reader recorded fluorescence intensity at 1 second intervals for 8 min and provided the data for analysis in an Excel format. EC50 values were calculated using Prism (GraphPad) software.

T1 sequence (O14842 whole entry): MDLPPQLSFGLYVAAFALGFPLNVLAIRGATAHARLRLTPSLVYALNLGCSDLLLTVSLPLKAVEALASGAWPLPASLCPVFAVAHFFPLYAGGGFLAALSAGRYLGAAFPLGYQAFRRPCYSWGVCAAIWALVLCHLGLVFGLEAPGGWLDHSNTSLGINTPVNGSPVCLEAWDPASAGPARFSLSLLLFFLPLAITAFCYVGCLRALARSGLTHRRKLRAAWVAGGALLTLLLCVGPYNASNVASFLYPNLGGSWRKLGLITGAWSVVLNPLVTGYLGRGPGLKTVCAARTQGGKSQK

| Compound | EC50 |
| --- | --- |
| COc1ccc(F)c(-c2noc(/C=C/c3cccc(C(CC(=O)O)C4CC4)c3)c2C2CC2)c1 (stereo in doubt) [Cpd 58, (3S)-3-cyclopropyl-3-[3-[(E)-2-[4-cyclopropyl-3-(2-fluoro-5-methoxy-phenyl)isoxazol-5-yl]vinyl]phenyl]propanoic acid] | 26 nM |
| COc1ccc(F)c(-c2noc(CCc3cccc([C@@H](CC(=O)O)C4CC4)c3)c2C2CCCC2(C)C)c1 (stereo partly drawn) [Cpd 54, (3S)-3-cyclopropyl-3-[3-[2-[4-(2,2-dimethylcyclopentyl)-3-(2-fluoro-5-methoxy-phenyl)isoxazol-5-yl]ethyl]phenyl]propanoic acid] | 1 nM |
| COc1ccc(F)c(-c2noc(/C=C/c3cccc([C@@H](CC(=O)O)C4CC4)c3)c2C2=CCCC2(C)C)c1 [Cpd 56, (3S)-3-cyclopropyl-3-[3-[(E)-2-[4-(5,5-dimethylcyclopenten-1-yl)-3-(2-fluoro-5-methoxy-phenyl)isoxazol-5-yl]vinyl]phenyl]propanoic acid] | 23 nM |
| COc1ccc(F)c(-c2noc(CCc3cccc([C@@H](CC(=O)O)C4CC4)c3)c2C2CC2)c1 [Cpd 57, (3S)-3-cyclopropyl-3-[3-[2-[4-cyclopropyl-3-(2-fluoro-5-methoxy-phenyl)isoxazol-5-yl]ethyl]phenyl]propanoic acid] | 25 nM |
| COc1ccc(F)c(-c2noc(/C=C\c3cccc([C@@H](CC(=O)O)C4CC4)c3)c2C2=CCCC2(C)C)c1 [Cpd 59, (3S)-3-cyclopropyl-3-[3-[(Z)-2-[4-(5,5-dimethylcyclopenten-1-yl)-3-(2-fluoro-5-methoxy-phenyl)isoxazol-5-yl]vinyl]phenyl]propanoic acid] | 252 nM |
| COc1ccc(F)c(-c2cc(COc3cccc([C@@H](CC(=O)O)C4CC4)c3)sc2C(C)(C)C)c1 [Cpd 60, (3S)-3-[3-[[5-tert-butyl-4-(2-fluoro-5-methoxy-phenyl)-2-thienyl]methoxy]phenyl]-3-cyclopropyl-propanoic acid] | 56 nM and 29 nM |
| COc1ccc(F)c(-c2nsc(COc3cccc([C@@H](CC(=O)O)C4CC4)c3)c2C2=CCCC2(C)C)c1 [Cpd 61, (3S)-3-cyclopropyl-3-[3-[[4-(5,5-dimethylcyclopenten-1-yl)-3-(2-fluoro-5-methoxy-phenyl)isothiazol-5-yl]methoxy]phenyl]propanoic acid] | 260 nM and 205 nM |

The remaining lines, values ahead:

| EC50 | Compound |
| --- | --- |
| 1 nM | COc1ccc(F)c(-c2noc(COc3cc(C(CC(=O)O)C4CC4)ccn3)c2C2=CCCC2(C)C)c1 (stereo not shown) [Cpd 53, 3-cyclopropyl-3-[2-[[4-(5,5-dimethylcyclopenten-1-yl)-3-(2-fluoro-5-methoxy-phenyl)isoxazol-5-yl]methoxy]-4-pyridyl]propanoic acid] |
| 22 nM | COc1ccc(F)c(-c2noc(COc3cc(C(CC(=O)O)C4CC4)c(Cl)cn3)c2C2=CCCC2(C)C)c1 (stereo not shown) [Cpd 55, 3-[5-chloro-2-[[4-(5,5-dimethylcyclopenten-1-yl)-3-(2-fluoro-5-methoxy-phenyl)isoxazol-5-yl]methoxy]-4-pyridyl]-3-cyclopropyl-propanoic acid] |
| 1 nM | COc1ccc(F)c(-c2noc(COc3cccc([C@@H](CC(=O)O)C4CC4)c3)c2C2=CCCC2(C)C)c1 [Cpd 62, (3S)-3-cyclopropyl-3-[3-[[4-(5,5-dimethylcyclopenten-1-yl)-3-(2-fluoro-5-methoxy-phenyl)isoxazol-5-yl]methoxy]phenyl]propanoic acid] |
